This passage reports binding, ΔTm and Kd results from paper PMC8245323 (2021).

For assay [1], the system named is G4 Kit1 (FRET) (DNA, G4) GGGAGGGCGCTGGGAGGAGGG
Description: FRET melting. The conditions noted are these: 60 mM potassium cacodylate; pH 7.4; increasing compound concentration up to 3 µM, 200 nM DNA.

For assay [2], the system named is G4 Myc (FRET) (DNA, G4) TGAGGGTGGGTAGGGTGGGTAA
Kind of assay: FRET melting. The conditions noted are these: 60 mM potassium cacodylate; pH 7.4; 1 µM compound, 200 nM DNA.

In assay [3] the test system is G4 Telo (FRET) (DNA, G4) GGGTTAGGGTTAGGGTTAGGG
Kind of assay: FRET melting. Particulars: 60 mM potassium cacodylate; pH 7.4; 1 µM compound, 200 nM DNA.

Assay [4] has as its system G4 Telo (fluorescence quench) (DNA, G4) AGGGTTAGGGTTAGGGTTAGGGT
Description: fluorescence quench binding assay. The conditions noted are these: 150 mM KCl; for Kd: 50 mM Tris HCl pH 7.2, 0.5% CHAPS, 0.05% Triton X-100, apparent, 9 nM DNA.

The subject of assay [5] is G4 Kit1 (fluorescence quench) (DNA, G4) AGGGAGGGCGCTGGGAGGAGGG
Kind of assay: fluorescence quench binding assay. The conditions noted are these: 150 mM KCl; for Kd: 50 mM Tris HCl pH 7.2, 0.5% CHAPS, 0.05% Triton X-100, apparent, 9 nM DNA.

The subject of assay [6] is G4 Myc (fluorescence quench) (DNA, G4) TGGGGAGGGTGGGGAGGGTGGGGAAGG
Kind of assay: fluorescence quench binding assay. The conditions noted are these: 150 mM KCl; for Kd: 50 mM Tris HCl pH 7.2, 0.5% CHAPS, 0.05% Triton X-100, apparent, 9 nM DNA.

Assay [7] relates to dsDNA (FRET) (DNA, hairpin, hexaethylene glycol (HEG, [(-CH2CH2O-)6]) linker between nucleotides 10 and 11) TATAGCTATATATAGCTATA
Description: FRET melting. The conditions noted are these: 60 mM potassium cacodylate; pH 7.4; increasing compound concentration up to 3 µM, 200 nM DNA.

Assay [8] concerns dsDNA (fluorescence quench) (DNA, duplex) CAATCGGATCGAATTCGATCCGATTG
Description: fluorescence quench binding assay. Particulars: 150 mM KCl; 50 mM Tris HCl pH 7.2, 0.5% CHAPS, 0.05% Triton X-100; apparent; 9 nM DNA.

The mark [9] stands for this setting: 50 mM Tris HCl pH 7.2, CHAPS, Triton X-100, highest concentration tested 5 µM.

What is called ΔTm is the shift of the melting midpoint relative to a reference.

For `C#CCCC1(CCC(=O)NC)N=N1`, the binding result in assay [1], in assay [4] (setting [9]), in assay [5] (setting [9]) and in assay [6] (setting [9]) was “no” in each case. The ΔTm in assay [2] and in assay [3] was 0 °C each time.
`C#CCCC1(CCC(=O)NCCOCCOCCNCCOc2cc(C(=O)Nc3cc(OCCN)c4ccccc4n3)nc(C(=O)Nc3cc(OCCN)c4ccccc4n3)c2)N=N1`: the binding entry in assay [1] is recorded as “yes”; in assay [7], “no”. Besides, the ΔTm stood at 13 °C in assay [2] and 27 °C in assay [3]. The Kd in assay [4] was 459 ± 25 nM; in assay [5] it was 669 ± 49 nM; in assay [6] it was 439 ± 36 nM; in assay [8] it was > 5,000 nM.
Regarding `C#CCCC1(CCNCCOc2cc(C(=O)Nc3cc(OCCN)c4ccccc4n3)nc(C(=O)Nc3cc(OCCN)c4ccccc4n3)c2)N=N1`, the binding result in assay [1] is “yes”; in assay [7] it was “no”. Also, the shift in melting temperature (ΔTm) was found to be 14 °C in assay [2] and 25 °C in assay [3]. Moreover, the Kd in assay [4] is on record as 306 ± 6 nM; in assay [5], 323 ± 13 nM; in assay [6] it was 197 ± 10 nM; in assay [8] it was > 5,000 nM.
With `NCCOc1cc(C(=O)Nc2cc(OCCN)c3ccccc3n2)nc(C(=O)Nc2cc(OCCN)c3ccccc3n2)c1`, the Kd in assay [6] turned out to be 168 ± 8 nM.
